# Tested on: Sphaerotheca fuliginea
# Experiment: In vivo preventive test on Sphaerotheca fuliginea (cucumber), Example G
# Details: 10 ppm of active ingredient, evaluated 7 days after inoculation
# Excerpt: After the spray coating has dried on, the plants are inoculated with an aqueous spore suspension of Sphaerotheca fuliginea.
row,Structure (SMILES),disease control
1,CC1CCc2cccc(C(C)N(C(=O)c3c(C(F)F)nn(C)c3F)C3CC3)c2C1 (mixture of isomers) [Example 50],100%
2,CCCCCc1ccccc1C(C)N(C(=O)c1c(C(F)F)nn(C)c1F)C1CC1 (racemic) [Example 26],100%
3,"CC(c1cccc2c1CCC(C)(C)C2)N(C(=O)c1c(C(F)F)nn(C)c1F)C1CC1 (single isomer, unassigned) [Example 44a]",100%
4,CC(C)Cc1ccc(F)c(F)c1CN(C(=O)c1c(C(F)F)nn(C)c1F)C1CC1 [Example 112],100%
5,Cn1nc(C(F)F)c(C(=O)N(Cc2c(Cl)cccc2C2CC2)C2CC2)c1F [Example 113],100%
6,CCCCc1cccc(Cl)c1CN(C(=O)c1c(C(F)F)nn(C)c1F)C1CC1 [Example 115],100%
7,Cn1nc(C(F)F)c(C(=O)N(Cc2c(Cl)cccc2[Si](C)(C)C)C2CC2)c1F [Example 116],100%
8,Cn1nc(C(F)F)c(C(=O)N(Cc2c(C(F)(F)F)ccc(F)c2C(F)(F)F)C2CC2)c1F [Example 117],100%
9,Cn1nc(C(F)F)c(C(=O)N(Cc2cc(F)ccc2[Si](C)(C)C)C2CC2)c1F [Example 118],100%
10,CCCCc1ccc(Cl)cc1CN(C(=O)c1c(C(F)F)nn(C)c1F)C1CC1 [Example 119],100%
11,CC(C)Cc1ccc(Cl)cc1CN(C(=O)c1c(C(F)F)nn(C)c1F)C1CC1 [Example 120],100%
12,CCCCc1ccc(F)cc1CN(C(=O)c1c(C(F)F)nn(C)c1F)C1CC1 [Example 121],100%
13,Cn1nc(C(F)F)c(C(=O)N(Cc2cc(F)ccc2C2CC2)C2CC2)c1F [Example 123],100%
14,CCc1cccc(Cl)c1CN(C(=O)c1c(C(F)F)nn(C)c1F)C1CC1 [Example 124],100%
15,CCCCc1ccc(F)c(F)c1CN(C(=O)c1c(C(F)F)nn(C)c1F)C1CC1 [Example 126],100%
16,CC(C)Cc1cccc(F)c1CN(C(=O)c1c(C(F)F)nn(C)c1F)C1CC1 [Example 127],100%
17,CCCCc1cccc(F)c1CN(C(=O)c1c(C(F)F)nn(C)c1F)C1CC1 [Example 128],100%
18,Cn1nc(C(F)F)c(C(=O)N(Cc2c(F)cccc2C2CC2)C2CC2)c1F [Example 130],100%
19,CC(C)c1ccc(F)cc1CN(C(=O)c1c(C(F)F)nn(C)c1F)C1CC1 [Example 135],100%
20,CC(C)c1ccc(F)c(F)c1CN(C(=O)c1c(C(F)F)nn(C)c1F)C1CC1 [Example 136],100%
21,Cn1nc(C(F)F)c(C(=O)N(Cc2c(F)cccc2C2CCCC2)C2CC2)c1F [Example 137],100%
22,Cn1nc(C(F)F)c(C(=O)N(Cc2cc(F)ccc2C2CCCC2)C2CC2)c1F [Example 138],100%
23,Cn1nc(C(F)F)c(C(=O)N(Cc2c(C3CCCC3)ccc(F)c2F)C2CC2)c1F [Example 139],100%
24,Cn1nc(C(F)F)c(C(=O)N(Cc2c(Cl)cccc2C2CCCC2)C2CC2)c1F [Example 141],100%
25,CC(C)c1ccccc1CN(C(=O)c1c(C(F)F)nn(C)c1F)C1CC1C (centres unmarked) [Example 157],100%

# Tested on: not listed separately
# Experiment: logP by HPLC on reversed-phase column (EEC Directive 79/831 Annex V.A8)
# Details: HPLC on reversed-phase column (C 18), 40° C., 0.1% aqueous formic acid and acetonitrile, linear gradient 10% to 90% acetonitrile
row,Structure (SMILES),logP
1,Cc1cccc2c1CCC2N(C(=O)c1c(C(F)F)nn(C)c1F)C1CC1 (racemic) [Example 102],3.55
2,CC(c1cc(Br)cc(Br)c1)N(C(=O)c1c(C(F)F)nn(C)c1F)C1CC1 (racemic) [Example 106],4.26
3,CCCCC1Cc2ccccc2C1N(C(=O)c1c(C(F)F)nn(C)c1F)C1CC1 (centres unmarked) [Example 100],4.85
4,CC(c1cccc(I)c1)N(C(=O)c1c(C(F)F)nn(C)c1F)C1CC1 (centres unmarked) [Example 103],3.76
5,Cn1nc(C(F)F)c(C(=O)N(Cc2cccc(C(F)(F)F)c2Cl)C2CC2)c1F [Example 104],3.64
6,Cn1nc(C(F)F)c(C(=O)N(Cc2c(Cl)cc(Cl)cc2Cl)C2CC2)c1F [Example 107],3.99
7,Cc1cccc(C)c1CN(C(=O)c1c(C(F)F)nn(C)c1F)C1CC1 [Example 108],3.31
8,Cn1nc(C(F)F)c(C(=O)N(C2CC2)C2CCc3cccc(Cl)c32)c1F (centres unmarked) [Example 109],3.42
9,Cn1nc(C(F)F)c(C(=O)N(Cc2ccccc2Oc2ccc(F)cc2)C2CC2)c1F [Example 110],3.85
10,CCc1ccccc1CN(C(=S)c1c(C(F)F)nn(C)c1F)C1CC1 [Example 133],4.06
11,CC(C)c1ccc(F)cc1CN(C(=O)c1c(C(F)F)nn(C)c1Cl)C1CC1 [Example 146],3.92
12,CC(C)Cc1cccc(Cl)c1CN(C(=O)c1c(C(F)F)nn(C)c1Cl)C1CC1 [Example 150],4.74
13,Cn1nc(C(F)F)c(C(=O)N(Cc2c(Cl)cccc2[Si](C)(C)C)C2CC2)c1Cl [Example 151],4.82
14,Cn1nc(C(F)F)c(C(=O)N(Cc2cc(Cl)ccc2C2CCCC2)C2CC2)c1Cl [Example 152],4.92
15,CC(C)CC(C)c1ccccc1CN(C(=O)c1c(C(F)F)nn(C)c1F)C1CC1 (centres unmarked) [Example 154],4.82
16,Cn1nc(C(F)F)c(C(=O)N(Cc2ccccc2C2CC2C2CC2)C2CC2)c1F (centres unmarked) [Example 155],4.25
17,CCC(C)c1ccccc1CN(C(=O)c1c(C(F)F)nn(C)c1F)C1CC1 (centres unmarked) [Example 156],4.06

# Same assay, conditions: HPLC, reversed-phase column (C 18), 40° C., 0.1% aqueous formic acid and acetonitrile, linear gradient 10% to 90% acetonitrile
row,Structure (SMILES),logP
1,CC1CCc2cccc(C(C)N(C(=O)c3c(C(F)F)nn(C)c3F)C3CC3)c2C1 (mixture of isomers) [Example 50],4.59
2,CCCCCc1ccccc1C(C)N(C(=O)c1c(C(F)F)nn(C)c1F)C1CC1 (racemic) [Example 26],4.92
3,Cn1nc(C(F)F)c(C(=S)N(Cc2ncc(C(F)(F)F)cc2Cl)C2CC2)c1F [Example 7],4.11
4,Cn1nc(C(F)F)c(C(=O)N(Cc2c(Cl)cccc2I)C2CC2)c1F [Example 19],3.58
5,Cn1nc(C(F)F)c(C(=O)N(Cc2cc(Br)ccc2I)C2CC2)c1F [Example 21],3.94
6,CC(C)Cc1cc(Cl)ccc1CN(C(=O)c1c(C(F)F)nn(C)c1F)C1CC1 [Example 31],4.59
7,CC(C)c1ccccc1CN(C(=O)c1c(C(F)F)nn(C)c1Cl)C1CC1 [Example 34],3.81
8,Cn1nc(C(F)F)c(C(=O)N(Cc2ccccc2I)C2CC2)c1Cl [Example 35],3.6
9,Cn1nc(C(F)F)c(C(=O)N(Cc2ccccc2[Si](C)(C)C)C2CC2)c1Cl [Example 37],4.49
10,CC(c1ccccc1C(F)(F)F)N(C(=O)c1c(C(F)F)nn(C)c1Cl)C1CC1 (centres unmarked) [Example 55],3.64
11,Cn1nc(C(F)F)c(C(=O)N(Cc2ccccc2C(F)(F)F)C2CC2)c1Cl [Example 56],3.58
12,Cn1nc(C(F)F)c(C(=O)N(Cc2ncc(C(F)(F)F)cc2Cl)C2CC2)c1Cl [Example 57],3.55
13,CC(c1ncc(Cl)cc1Cl)N(C(=O)c1c(C(F)F)nn(C)c1Cl)C1CC1 (centres unmarked) [Example 58],3.69
14,Cn1nc(C(F)F)c(C(=O)N(Cc2ccc(Cl)cc2Cl)C2CC2)c1Cl [Example 59],3.89
15,CC(c1ccc(Oc2ccccc2)cc1)N(C(=O)c1c(C(F)F)nn(C)c1Cl)C1CC1 (centres unmarked) [Example 60],4.31
16,CC(c1ccc(Oc2ccccc2)cc1)N(C(=O)c1c(C(F)F)nn(C)c1F)C1CC1 (centres unmarked) [Example 65],4.14
17,CC(c1ccccc1C(F)(F)F)N(C(=O)c1c(C(F)F)nn(C)c1F)C1CC1 (centres unmarked) [Example 66],3.42
18,Cn1nc(C(F)F)c(C(=O)N(Cc2cccc(-c3ccccc3)c2)C2CC2)c1Cl [Example 67],3.94
19,CCC(c1ccc(Cl)cc1Cl)N(C(=O)c1c(C(F)F)nn(C)c1F)C1CC1 (centres unmarked) [Example 69],4.2

row,Structure (SMILES),logP
1,CCC(c1cc(Cl)cc(Cl)c1)N(C(=O)c1c(C(F)F)nn(C)c1F)C1CC1 (centres unmarked) [Example 71],4.41
2,Cc1cc(C)c2c(c1)C(N(C(=O)c1c(C(F)F)nn(C)c1F)C1CC1)CCC2 (centres unmarked) [Example 74],4.25
3,Cc1cc(Br)c(CN(C(=O)c2c(C(F)F)nn(C)c2F)C2CC2)cc1F [Example 75],3.73
4,Cn1nc(C(F)F)c(C(=O)N(Cc2ccccc2C(C)(C)C)C2CC2)c1F [Example 76],4.06
5,CC(c1ccc(C(F)(F)c2ccccc2)cc1)N(C(=O)c1c(C(F)F)nn(C)c1F)C1CC1 (centres unmarked) [Example 77],4.23
6,CC(c1cccc(C(F)(F)c2ccccc2)c1)N(C(=O)c1c(C(F)F)nn(C)c1F)C1CC1 (centres unmarked) [Example 78],4.15
7,Cc1cc(Cl)c(CN(C(=O)c2c(C(F)F)nn(C)c2F)C2CC2)cc1C [Example 79],3.85
8,Cn1nc(C(F)F)c(C(=O)N(C2CC2)C2CC(C)(C)c3ccccc32)c1F (centres unmarked) [Example 85],3.87
9,Cn1nc(C(F)F)c(C(=O)N(C2CC2)C2CCOc3ccccc32)c1F (centres unmarked) [Example 86],2.84
10,Cn1nc(C(F)F)c(C(=O)N(Cc2cc(Br)c3c(c2Br)OCO3)C2CC2)c1F [Example 87],3.44
11,CCc1cccc(CC)c1CN(C(=O)c1c(C(F)F)nn(C)c1F)C1CC1 [Example 88],4.01
12,CC(c1ccccc1OC(F)(F)F)N(C(=O)c1c(C(F)F)nn(C)c1F)C1CC1 (centres unmarked) [Example 91],3.6
13,Cn1nc(C(F)F)c(C(=O)N(Cc2c(Br)cccc2Br)C2CC2)c1F [Example 92],3.51
14,CCCCC(c1ccc(C(F)(F)F)cc1)N(C(=O)c1c(C(F)F)nn(C)c1F)C1CC1 (centres unmarked) [Example 93],4.8
15,CCCCC(c1ccccc1)N(C(=O)c1c(C(F)F)nn(C)c1F)C1CC1 (centres unmarked) [Example 94],4.26
16,CC(c1ccccc1)N(C(=O)c1c(C(F)F)nn(C)c1F)C1CC1 (centres unmarked) [Example 95],3.06
17,CC(c1cc(C(F)(F)F)ccc1Cl)N(C(=O)c1c(C(F)F)nn(C)c1F)C1CC1 (centres unmarked) [Example 96],3.89
18,Cn1nc(C(F)F)c(C(=O)N(C2CC2)C2CCCc3cccc(Br)c32)c1F (centres unmarked) [Example 97],3.78
19,CC(c1ccccc1Br)N(C(=O)c1c(C(F)F)nn(C)c1F)C1CC1 (centres unmarked) [Example 98],3.31

# Reference: US8772266B2, “Fungicide pyrazole carboxamides derivates” (Bayer Cropscience AG, priority 2009, dated 2014)
